# Assay results: patent US7521589B2, “Developmental animal model of temporal lobe epilepsy” (University of Prince Edward Island, priority 2003, dated 2009)
# How the values were obtained:
# Type in all cases: in vivo, rat
# Sprague Dawley rats [1] = experiment: NIS-L syndrome during Novel Water Maze (NWM) testing; conditions: for animals exhibiting NIS-L syndrome in NWM: tested PND 240; for animals displaying NIS-L syndrome during NWM testing: separate cohort, tested at 15 months
# Method: To determine if the syndrome could be elicited by novel stimuli other than the MWM, all rats were tested in the Novel Water Maze (NWM) (Kant, G. J., Pharmacol. Biochem. […]
# The Novel Water Maze (NWM) (Kant, G. J., Pharmacol. Biochem. Behav. [1993] 44:287-295) was selected based on its provision of a novel environment within which to evaluate the novelty impact on the precipitation of NIS-L. Animals were tested for 6 consecutive swim trials of 60 sec duration and scored for the presence or absence of NIS-L behaviours, by an observer blind to treatment during the 120 sec inter-trial period.
# Sprague Dawley rats [2] = experiment: NIS-L syndrome in open field arena; conditions: male rats; for animals displaying NIS-L in open field arena: tested PND 270
# Method: To determine if the syndrome could be elicited by novel stimuli other than the MWM, all rats were tested in the Novel Water Maze (NWM) (Kant, G. J., Pharmacol. Biochem. Behav. [1993] 44:287-295) approximately 120 days after the MWM testing (i.e. PND 240).
# The open field apparatus consisted of a 1.5 m diameter circular arena sectioned into 32 grids (16 central grids: 9 cm×9 cm; 16 peripheral grids). The open field was chosen as another environment that provided novelty while at the same time being less physiologically challenging than the previously described two water maze tasks. All rats were given a single 10 min trial in the open field arena and scored for the presence or absence of NIS-L by an experimenter blind to treatment. All testing procedures were conducted according to the guidelines of the Canadian Council on Animal Care.
# Sprague Dawley rats [3] = experiment: Daily assessment of pups until weaning for overt toxicity and weight gain; conditions: 5 or 20 μg/kg s.c. daily PND 8-PND 14
# Method: Within 24 hr of birth, offspring of untimed-pregnant Sprague Dawley rats (Charles River Laboratories, St. Constant, PQ) were culled to 10 pups/litter (5 males and 5 females). From post-natal day (PND) 8-PND 14, pups were weighed and given a single daily injection (s.c.; 10 ml/kg) of either saline, or 5 or 20 μg/kg domoic acid (DOM). These doses are well below those normally required to induce toxicity in animals of this age (Doucette, T. A. et al., Neurotox. Teratol. [2003] 25:473-479, and Doucette, T. A., et al., Neurotox. Teratol. [2000] 22:863-869). Pups were assessed daily until weaning (on PND 22) for overt signs of toxicity, and all pre- and post-weaning testing was conducted with the experimenter blind to treatment. All procedures were conducted in accordance with the guidelines of the Canadian Council on Animal Care. […] Rats received no additional drug treatment after PND 14. On PND 120, animals were tested for spatial learning and memory in the Morris Water Maze (MWM) (8 trials/day over 6 consecutive days), using a standard reversal procedure (McNamara, R. K. and Skelton, R. W., Brain Res. Brain Res. Rev. [1993] 18:33-49). […]
# Sprague Dawley rats [4] = experiment: NIS-L syndrome during Morris Water Maze (MWM) testing
# Method: Within 24 hr of birth, offspring of untimed-pregnant Sprague Dawley rats (Charles River Laboratories, St. Constant, PQ) were culled to 10 pups/litter (5 males and 5 females). […] These doses are well below those normally required to induce toxicity in animals of this age (Doucette, T. A. et al., Neurotox. Teratol. [2003] 25:473-479, and Doucette, T. A., et al., Neurotox. Teratol. [2000] 22:863-869). Pups were assessed daily until weaning (on PND 22) for overt signs of toxicity, and all pre- and post-weaning testing was conducted with the experimenter blind to treatment. All procedures were conducted in accordance with the guidelines of the Canadian Council on Animal Care. […] Rats received no additional drug treatment after PND 14. On PND 120, animals were tested for spatial learning and memory in the Morris Water Maze (MWM) (8 trials/day over 6 consecutive days), using a standard reversal procedure (McNamara, R. K. and Skelton, R. W., Brain Res. Brain Res. Rev. [1993] 18:33-49). While on the escape platform during the 60 second inter-trial interval, a significant number of DOM-treated rats presented with abnormal behaviour characterized by a combination of hunched body posture, facial clonus, mastication with tongue-protrusion, repetitive head extensions and bobbing, repetitive eye blinking/squinting, and vibrissae and ear twitching, often in combination with forelimb clonus. Presentation of all of the above behaviours was termed “novelty-induced seizure-like (NIS-L) syndrome”. Of note, the expression of this syndrome was not consequent to earlier drug-induced toxicity or seizures, nor was it spontaneous.
# The Morris Water Maze (MWM) consisted of a circular tank measuring 1.5 m in diameter. Water temperature was maintained at approximately 21° C. and was made opaque by a layer of polypropylene pellets floated on the surface. Four points around the edge of the pool were arbitrarily designated as north (N), south (S), east (E), and west (W), allowing the apparatus to be divided into 4 corresponding quadrants (NE, SE, NW, SW). A clear plexiglass escape platform was submerged approximately 2 cm below the water surface and placed, initially, in the NE quadrant of the maze (alternate locations for the reversal task were implemented on Day 3 and Day 5). Extra-maze cues consisted of laboratory furniture and lights (held constant throughout the experiment). A video camera was mounted above the center of the pool and all performance was recorded for subsequent analyses. […] Escape latencies and inter-trial behaviour was recorded by observers blind to experimental treatment.
Compound,"animals exhibiting NIS-L syndrome in NWM (Sprague Dawley rats [1]; female rats, 5 μg/kg PND 8-14)","animals exhibiting NIS-L syndrome in NWM (Sprague Dawley rats [1]; female rats, 20 μg/kg PND 8-14)","animals displaying NIS-L syndrome during NWM testing (Sprague Dawley rats [1]; female rats, 20 μg/kg PND 8-14)","animals exhibiting NIS-L syndrome in NWM (Sprague Dawley rats [1]; male rats, 5 μg/kg PND 8-14)","animals exhibiting NIS-L syndrome in NWM (Sprague Dawley rats [1]; male rats, 20 μg/kg PND 8-14)","animals displaying NIS-L syndrome during NWM testing (Sprague Dawley rats [1]; male rats, 20 μg/kg PND 8-14)",animals displaying NIS-L in open field arena (Sprague Dawley rats [2]; 5 μg/kg PND 8-14),animals displaying NIS-L in open field arena (Sprague Dawley rats [2]; 20 μg/kg PND 8-14),weight gain between groups (Sprague Dawley rats [3]),signs of physical or behavioural toxicity prior to weaning (Sprague Dawley rats [3]; pups assessed until PND 22),"rats with NIS-L syndrome (study parallel in design to Example 1) (Sprague Dawley rats [4]; female rats, 25 μg/kg neonatally)","rats with NIS-L syndrome (study parallel in design to Example 1) (Sprague Dawley rats [4]; female rats, 100 μg/kg neonatally)","rats with NIS-L syndrome (study parallel in design to Example 1) (Sprague Dawley rats [4]; male rats, 25 μg/kg neonatally)","rats with NIS-L syndrome (study parallel in design to Example 1) (Sprague Dawley rats [4]; male rats, 100 μg/kg neonatally)",rats exhibiting NIS-L syndrome in open field arena (Sprague Dawley rats [2]; 25 μg/kg neonatally),rats exhibiting NIS-L syndrome in open field arena (Sprague Dawley rats [2]; 100 μg/kg neonatally)
"C/C(=C/C=C/[C@@H](C)C(=O)O)[C@H]1CN[C@H](C(=O)O)[C@H]1CC(=O)O [DOM, domoic acid]",33.3%,100%,50%,33.3%,66.7%,50%,50%,66.7%,no significant differences in weight gain,None of the pups displayed any signs of physical or behavioural toxicity,–,–,–,–,–,–
"C=C(C)[C@H]1CN[C@H](C(=O)O)[C@H]1CC(=O)O [KA, kainic acid]",–,–,–,–,–,–,–,–,–,–,16.7%,57.1%,62.5%,62.5%,62.5%,33.3%
